The subject of assay [1] is dorsal root ganglion (DRG) neurons. Kind of assay: Resting membrane potential of DRG neurons, whole-cell current clamp. It is filed as cell-based, mice. Particulars: 10 μM, pH 7.4, 120 s application. As for the experimental part: (§1) All animal experiments were approved by the local Animal Care and Use Committee and followed international guidelines. Five female 7-12 week-old C57BL/6 mice (Scanbur) were used for this study. The mice were anaesthetized with isoflurane and decapitated. Dorsal root ganglia (DRG) were dissected from all spinal levels and enzymatically digested with collagenase (250 CDU/ml) for 15 min, and then trypsin (1 mg/ml) was added for another 30 min. The ganglia were centrifuged and resuspended in Leibovitz L-15 media with glutamine, supplemented with 10% fetal calf serum, 38 mM glucose, 24 mM NaHCO3 and penicillin/streptomycin. The ganglia were triturated and the DRG neurons plated on poly-D-lysine coated plastic coverslips. The neurons were cultured at 37° C. with 5% CO2 for 2-3 days before the electrophysiological recordings.
(§2) All manual electrophysiological recordings were performed at room temperature (20-23° C.), using a GeneClamp 500B amplifier (for oocytes) or a Axopatch 200B amplifier (for manual patch clamp of CHO—K1 cells and DRG neurons) and a Digidata 1440A digitizer and pClamp 10 software (all from Molecular Devices, Inc., Sunnyvale, Calif., USA). Compounds were dissolved to 100 mM in 99.5% EtOH and stored at −20° C. Compounds were diluted in extracellular solution to the desired test concentration.
(§3) CHO—K1 Cells were plated on coverslips 2 h before the manual electrophysiological recordings. Coverslips with CHO—K1 cells or DRG neurons were placed in a recording chamber and perfused with extracellular solution by a gravity-fed perfusion system. Substances were applied by a pressurized, automated OctaFlow perfusion system (ALA Scientific Instruments). The signals were sampled at 5-20 kHz after low-pass filtering at 2-5 kHz. For CHO—K1 cells the intracellular solution contained (in mM): 120 K-gluconate, 10 KCl, 5 EGTA, 10 HEPES, 4 Mg-ATP, 0.3 Na-GTP, pH 7.3; the extracellular solution contained (in mM): 135 NaCl, 4 KCl, 10 HEPES, 1 MgCl2, 1.8 CaCl2, 10 glucose, pH 7.4. Currents were evoked in CHO—K1 cells in whole-cell voltage-clamp mode from a holding potential of −80 mV by 100-ms long, 10-mV steps ranging from −80 to +80 mV.
(§4) For DRG neurons the intracellular solution contained (in mM): 120 K-gluconate, 10 KCl, 1 EGTA, 10 HEPES, 4 Mg-ATP, 0.3 Na-GTP, pH 7.3; the extracellular solution contained (in mM): 144 NaCl, 2.5 KCl, 10 HEPES, 0.5 MgCl2, 2 CaCl2, 10 glucose, pH 7.4. A liquid-junction potential of approximately −14 mV was corrected for. […] Small and medium sized DRG neurons were selected for whole-cell current-clamp recording. 10 μM of the compounds were applied for 120 s to study the effect on the resting membrane potential, and for 45-120 s to study the effects on evoked action potentials. To evoke action potentials 800-ms depolarizing pulses
The compound effect on the resting membrane potential Vm was determined by subtracting the control pre-compound Vm from the Vm at the end of the 120 s application of test compound.

Assay [2] has as its target 3R Shaker K channel (Drosophila melanogaster, UniProt P08510, A359R/M356R). Kind of assay: G(V) shift of 3R Shaker K channel stably expressed in CHO-K1 cells, whole-cell patch clamp. Particulars: 10 μM, pH 7.4. It is filed as cell-based. The source says: All animal experiments were approved by the local Animal Care and Use Committee and followed international guidelines. A modified Shaker H4 channel^30, with removed N-type inactivation (ShH4IR)^31, here called the wild type (WT) channel, was expressed in oocytes. In addition, a modified 3R Shaker K channel where two introduced positive charged arginines (M356R and A359R) in addition to one native arginine (R362) makes the channel more sensitive to DHA^16, was expressed in oocytes and in a CHO—K1 stable cell line.
For the modified 3R Shaker K channel a stable cell line was generated. The construct was cloned into the pcDNA3 vector. CHO—K1 cells were plated into T75 culture flasks and grown without penicillin/streptomycin. […]
where IK is the average current from the steady-state phase at the end of each 100-ms pulse, V is the membrane voltage, and Vrev is the reversal potential for K^+, (set to −80 mV for the oocytes, and calculated to be −89 mV for the CHO—K1 cells).
where A is amplitude of the curve, V is the absolute membrane voltage, V1/2 is the midpoint, s is the slope and n is an exponent set to 4^17. The compound-induced G(V) shift was determined at the 10% level of the maximum conductance in control solution^17. The compound-induced G(V) shift in CHO—K1 was quantified by subtracting the control V1/2 from the compound V1/2 when n was set to 1.
In general terms: In patch-clamp work, channel activity is measured electrically.

The subject of assay [3] is dorsal root ganglion (DRG) neurons. Nature of the assay: Evoked action potentials (excitability) of DRG neurons, current clamp. It is filed as cell-based, mice. Particulars: 10 μM; for effect on the after hyperpolarization: cell with single action potential; for effect on resting potential, cell with single action potential: constant current pulse; for effect on train of action potentials: continuous pulse. On the procedure: as §1, §2, §3, §4

3R Shaker K channel, sequence (P08510 whole entry M356R/A359R): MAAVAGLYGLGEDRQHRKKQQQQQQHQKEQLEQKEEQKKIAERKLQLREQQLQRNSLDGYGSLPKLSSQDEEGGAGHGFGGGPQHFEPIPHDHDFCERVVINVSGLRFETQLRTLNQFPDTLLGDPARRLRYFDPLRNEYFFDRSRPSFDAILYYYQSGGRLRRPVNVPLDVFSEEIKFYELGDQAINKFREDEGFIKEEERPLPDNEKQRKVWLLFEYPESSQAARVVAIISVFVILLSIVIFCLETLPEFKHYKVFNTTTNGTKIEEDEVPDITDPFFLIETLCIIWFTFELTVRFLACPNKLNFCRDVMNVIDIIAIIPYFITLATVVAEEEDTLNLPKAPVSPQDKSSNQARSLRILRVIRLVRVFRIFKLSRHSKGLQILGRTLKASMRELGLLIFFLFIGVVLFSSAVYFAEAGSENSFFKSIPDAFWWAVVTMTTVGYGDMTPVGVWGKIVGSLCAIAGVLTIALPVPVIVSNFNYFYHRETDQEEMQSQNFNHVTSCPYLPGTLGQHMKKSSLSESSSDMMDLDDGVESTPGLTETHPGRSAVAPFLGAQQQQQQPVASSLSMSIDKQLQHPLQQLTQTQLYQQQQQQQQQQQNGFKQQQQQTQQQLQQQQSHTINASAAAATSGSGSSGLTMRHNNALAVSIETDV

Take `CO/N=C1\CC2[C@](C)(C(=O)O)CCC[C@]2(C)c2cc(Br)c(C(C)C)cc21` (stereo partly drawn) [Wu32, (1R,4aS,E)-6-bromo-7-isopropyl-9-(methoxyimino)-1,4a-dimethyl-1,2,3,4,4a,9,10,10a-octahydrophenanthrene-1-carboxylic acid]: the “shift of the resting membrane potential (ΔVm)” value in assay [1] is “intermediately potent hyperpolarizers”.
As to `CC(C)c1ccc2c(c1)C(C(=O)O)CC1[C@](C)(C(=O)O)CCC[C@]21C` (stereo partly drawn) [Wu35], the “G(V) shift in CHO cells” value in assay [2] is recorded as “very poor shifter”. Also, the “shift of the resting membrane potential (ΔVm)” value in assay [1] is listed as −1.1±0.4. Moreover, in assay [3], the “effect on the after hyperpolarization” value was “only a very small effect”; the “effect on resting potential, cell with single action potential” value is reported as “almost no effect”; the “effect on train of action potentials” value is listed as “almost no effect on the same cell”.
Turning to `C[C@@]1(C(=O)O)CCC[C@]2(C)c3cc(Cl)c(Cl)c(Cl)c3CCC12` (stereo partly drawn) [Wu50, (1R,4aS)-6,7,8-trichloro-1,4a-dimethyl-1,2,3,4,4a,9,10,10a-octahydrophenanthrene-1-carboxylic acid], in assay [3], the “effect on the after hyperpolarization” value is recorded as “pronounced effect”; the “effect on resting potential, cell with single action potential” value is given as “made the resting potential more negative”; the “effect on train of action potentials” value was “completely abolished all action potentials”.

The values are drawn from patent US20180193294A1, “Dehydroabietic acid (DHAA) derivatives for use as ion channel openers” (priority 2015, published 2018).
